Results reported in patent US20230053540A1, “TREATMENT OF LIVER INJURY” (Massachusetts Institute of Technology, priority 2019, published 2023).

Tested on: hepatocytes
Assay: Seq-Well scRNA-Seq of hepatocytes after APAP overdose (signature scores, DEG vs untreated)
Format: in vivo, mouse
Conditions: APAP vs UT

Compound: CC(=O)Nc1ccc(O)cc1 [APAP, acetaminophen]
- Tm7sf2 logFC (composite DEG): −0.3164
- Tmbim4 logFC (composite DEG): 0.3227
- Tmbim6 logFC (composite DEG): 0.3387
- Tmed5 logFC (composite DEG): 0.4016
- Tmem14c logFC (composite DEG): −0.3685
- Tmem37 logFC (composite DEG): −0.2822
- Tmem56 logFC (composite DEG): 1
- Tmem147 logFC (composite DEG): −0.2838
- Tmem160 logFC (composite DEG): −0.339
- Tmem205 logFC (composite DEG): −0.7747
- Tmem243 logFC (composite DEG): −0.3791
- Tmem258 logFC (composite DEG): −0.2769
- Tmprss6 logFC (composite DEG): −0.2802
- Tmsb4x logFC (composite DEG): 0.7806
- Tnks2 logFC (composite DEG): 0.3176
- Tns1 logFC (composite DEG): 0.4349
- Tob1 logFC (composite DEG): −0.3387
- Tomm70a logFC (composite DEG): 0.2688
- Tpr logFC (composite DEG): 0.4409
- Trf logFC (composite DEG): −0.2619
- Trib1 logFC (composite DEG): 0.3317
- Trp53inp1 logFC (composite DEG): 1.008
- Tsc22d1 logFC (composite DEG): −0.2997
- Tspan31 logFC (composite DEG): −0.2959
- Tspo logFC (composite DEG): −0.3157
- Ttc36 logFC (composite DEG): −0.6606
- Tubb6 logFC (composite DEG): 0.5767
- Txn1 logFC (composite DEG): −0.3091
- Txndc5 logFC (composite DEG): 0.2901
- Txnrd1 logFC (composite DEG): 1.444
- Tyrobp logFC (composite DEG): 0.4666
- Ubb logFC (composite DEG): −0.275
- Ubc logFC (composite DEG): −0.6618
- Ubl5 logFC (composite DEG): −0.3033
- Ubr4 logFC (composite DEG): 0.3301
- Ugp2 logFC (composite DEG): 0.2973
- Ugt2b1 logFC (composite DEG): −0.7768
- Ugt2b5 logFC (composite DEG): −0.6034
- Ugt2b36 logFC (composite DEG): −0.5834
- Uhrf1bp1l logFC (composite DEG): 0.4198
- Uqcc2 logFC (composite DEG): −0.3269
- Uqcrb logFC (composite DEG): −0.4084
- Uqcrq logFC (composite DEG): −0.8867
- Urah logFC (composite DEG): −0.7641
- Uroc1 logFC (composite DEG): 0.4162
- Vcam1 logFC (composite DEG): 0.4574
- Vnn3 logFC (composite DEG): 0.2765
- Vtn logFC (composite DEG): 0.3338
- Wbp1l logFC (composite DEG): 0.5535
- Wdr26 logFC (composite DEG): 0.4325
- Wdr43 logFC (composite DEG): 0.3438
- Xiap logFC (composite DEG): 0.2602
- Yap1 logFC (composite DEG): 0.3281
- Zbtb20 logFC (composite DEG): 0.4715
- Zfp91 logFC (composite DEG): 0.3707
- Zyx logFC (composite DEG): 0.2983
- mmu-mir-6240 logFC (composite DEG): 1.101
- mt-Co3 logFC (composite DEG): −1.167
- 0610007P14Rik logFC (A24logFC): −0.257
- 1110058L19Rik logFC (A24logFC): −0.2581
- 4931406C07Rik logFC (A24logFC): −0.2544
- 4932438A13Rik logFC (A24logFC): 0.2879
- 2810428115Rik logFC (A24logFC): −0.2631
- Abcb11 logFC (A24logFC): −0.2618
- Abcc2 logFC (A24logFC): 0.2897
- Abce1 logFC (A24logFC): 0.28
- Abcf1 logFC (A24logFC): 0.3032
- Abcg2 logFC (A24logFC): −0.2809
- Acaa1a logFC (A24logFC): −0.3018
- Acat3 logFC (A24logFC): −0.3115
- Acot13 logFC (A24logFC): −0.2886
- Acsm5 logFC (A24logFC): −0.2614
- Actr3 logFC (A24logFC): 0.276
- Aes logFC (A24logFC): −0.2642
- Anxa5 logFC (A24logFC): 0.3654
- Apof logFC (A24logFC): −0.2522
- Arhgdia logFC (A24logFC): 0.2563
- Ash11 logFC (A24logFC): 0.2657
- Atf4 logFC (A24logFC): 0.3411
- Bc1af1 logFC (A24logFC): 0.2685
- Bdhl logFC (A24logFC): −0.2936
- C6 logFC (A24logFC): −0.267
- C1d logFC (A24logFC): −0.2553
- Cap1 logFC (A24logFC): 0.3251
- Ccdc50 logFC (A24logFC): 0.2858
- Ccnl1 logFC (A24logFC): 0.2566
- Cdh1 logFC (A24logFC): 0.2697
- Cep85 logFC (A24logFC): 0.2839
- Chmp4b logFC (A24logFC): 0.3002
- Chuk logFC (A24logFC): 0.3724
- Clic4 logFC (A24logFC): 0.2998
- Coasy logFC (A24logFC): −0.2534
- Commd3 logFC (A24logFC): −0.2656
- Csrp3 logFC (A24logFC): −0.294
- Ctnnd1 logFC (A24logFC): 0.2518
- Ctsc logFC (A24logFC): 0.361
- Cu11 logFC (A24logFC): 0.2592
- Cu13 logFC (A24logFC): 0.2788
- Cybb logFC (A24logFC): 0.3778
- Dcaf11 logFC (A24logFC): −0.2817
- Ddost logFC (A24logFC): 0.2504
